Patent US5593698A, “Suppression of proliferative response and induction of tolerance with polymorphic class II MHC allopeptides” (Autoimmune, Inc., priority 1993, dated 1997)

What follows are substances tested on LEW rats (assay: Delayed Type Hypersensitivity (DTH) response after immunization with allopeptides). Conditions: LEW rats immunized in foot pad with 12.5 μg of one fragment and CFA; FIG. 5.
Format: in vivo, rat
Experimental: 4. Delayed Type Hypersensitivity (DTH) Response: LEW rats, used as responders, were immunized subcutaneously in the foot pad with 100 μg of the mixture of four RT1.B^u (50 μg) and four RT1.D^u (50 μg) peptides in complete Freund's adjuvant (12.5 μg of each peptide). These animals were challenged subcutaneously 2 weeks later in one ear with 10 μg of the peptide mixture and in the other ear with freshly prepared and irradiated (3000 Rads) splenocytes (10×10^6) from WF (RT1^u), syngeneic LEW (RT1^1), or third party BN (RT1^n). The DTH responses were measured with micrometer caliper (Mitutoyo, Japan) by a blinded observer as the delta ear thickness before and 2 days after the challenge (inches ×10^-2). Experiments were performed using 5 animals in each study group. P values were calculated using the student t-test.
These experiments investigate whether, in addition to polymorphism, the native location of the allopeptide, β-pleat vs. α-helix, may be an important determinant of immunogenicity and tolerogenicity in vivo. The immunogenicity and tolerogenicity of the individual allopeptide fragments were investigated. LEW rats, used as responders, were immunized subcutaneously in the foot pad with 12.5 μg of one of the four RT1.D (1-25, 20-44, 39-64, and 60-84) and four RT1.B (1-25, 20-44, 39-64, and 68-92) allopeptide fragments and CFA. DTH responses were then determined for each of the peptide fragments. […] In FIG. 5, "RT1D mix" and "RT1B mix" refers to animals immunized with a mixture of all four allopeptides. In FIG. 5 solid bars represent immunization with cells, hatched bars represent immunization with peptides. Bars represent the change in ear thickness in […] (mean±SEM).
In the case of “RT1.B1: RT1.B allopeptide fragment 1-25, β-pleat (QRLRRDFLVQFKPYCYFTNGTQRIR)”, the “Immunogenicity of individual allopeptide fragments by DTH response” value (“Immunogenicity” for short) was “immunogenic”.
In the case of “RT1.B2: RT1.B allopeptide fragment 20-44, β-pleat (GTQRIRNVIRYIYNREEYLRYDSDV)”, the “Immunogenicity” value was “immunogenic”.
With “RT1.D1: RT1.D allopeptide fragment 1-25, β-pleat (RDPTPRFLGYLKPECHFYNGTNRVR)” the “Immunogenicity” value was “immunogenic”.
With “RT1.D2: RT1.D allopeptide fragment 20-44, β-pleat (GTNRVRLLARLIYNREEYARFDSDV)” the “Immunogenicity” value was “immunogenic”.
